Laboratory results from patent US10226465B2, “Composition for use in increasing engraftment efficacy of haematopoetic stem cells after transplantation” (priority 2015, dated 2019).

Assays:
[1] = test system: human haematopoetic CD34+ stem and progenitor cells; assay: [3H]cAMP accumulation assay; format: cell-based; details: for cAMP response after pertussis toxin pretreatment: pertussis toxin 16 h, + 30 μM forskolin
Procedure: Human haematopoetic CD34+ stem and progenitor cells (HSPCs, 4*10^5/mL) were first preincubated for 16 h in the absence presence of 100 ng/ml pertussis toxin (Sigma Aldrich) in X-VIVO15 medium supplemented with growth factors followed by metabolic labelling of the adenine nucleotide pool by an additional 4 h incubation period in [^3H]adenine (Perkin Elmer, 1 μCi/mL) in the X-VIVO15 medium supplemented with growth factors and 10 μg/mL adenosine deaminase (Roche). Thereafter, the cells were challenged with 1 or 10 μM Treprostinil, 1 or 10 μM dimethyl-PGE2 (dmPGE2), forskolin (30 μM) or the combination of forskolin and prostanoids for 30 min. The cells were then pelleted (5 min at 100 g), the medium was removed and the pellet was lysed in ice-cold 2.5% perchloric acid (0.9 mL) containing 0.1 mM cAMP, held on ice for 1 h and neutralized with 4.2 M KOH (0.1 mL). ATP and cAMP were separated by sequential chromatography on columns containing Dowex AG50-X8 and neutral alumina (3).
After metabolic labelling with [3H]adenine, human HSPCs were stimulated with Treprostinil (Trep, 10 μM), dmPGE2 (10 μM) or forskolin (Fsk, 30 μM), the combination of Treprostinil (10 μM) or of dmPGE2 (10 μM) with forskolin (30 μM) as outlined under Materials and Methods. Where indicated HSPCs had been pretreated with pertussis toxin (PTX) for 16 h prior to stimulation. Data are from three independent experiments carried out in triplicate, error bars indicate s.e.m. […] This difference was abolished by pertussis toxin pretreatment (ns, not significant).

EP2 receptors = EP2 receptors (Homo sapiens, UniProt P43116); details: read-out: Kd for activation of isolated EP2 receptors; cited from earlier work
[2] = test system: lethally irradiated recipient C57Bl/6 (CD45.2+) mice; assay: Homing assay (CD45.1+ donor cells in bone marrow of CD45.2+ recipients, FACS, Example 6); format: in vivo
Procedure: The lineage-negative HSPCs were isolated from whole bone marrow cells of donor mice B6.SJL-PtrcAPep3B/Boyl (CD45.1+) using MACS micro beads (see above). The cells were in vitro treated with 10 μM Treprostinil and 30 μM forskolin or vehicle control for 1 h at 37° C. After washing, 0.2×10^6 lineage-negative CD 45.1^+ cells were injected in to the lethally irradiated (10 Gy) recipient C57Bl/6 (CD45.2^+) mice. Recipient mice were also treated in vivo with either Treprostinil (0.15 mg kg 8 h^−1), vildagliptin (10 mg kg^−1) or with the combination of both drugs subcutaneously. Control mice were injected with the same volume of vehicle. The whole bone marrow cells were isolated from recipient mice 16 h after transplantation. After lysis of red blood cells, the cells were stained for CD45.1 and CD45.2 markers. The proportion of CD45.1^+ and CD45.2^+ cells in the bone marrow was determined by flow cytometry.
Given that DPP-IV inhibitors may be a suitable combination partner for Treprostinil, we explored whether the DPP-IV inhibitor vildagliptin enhanced the action of Treprostinil. This was first tested in an approach, which measured the ability of injected HSPCs to home into the bone marrow: HSPCs harvested from the bone marrow of CD 45.1+ donor mice were injected into isogenic CD45.2 recipients. The animals were sacrificed after 16 h and the amount of CD45.1+ cells, which were retrieved from their bone marrows was quantified by FACS.
The recipient mice were then divided in 7 groups. […] Mice allocated to group 3 received only in vitro-treated cells, those in group 4 were subjected—in addition—to in vivo Treprostinil (Trep, 0.15 mg kg^−1 8 h^−1). Mice assigned to group 5 were administered a combined in vivo treatment with Treprostinil (0.15 mg kg−1 8 h−1) and AMD3100 (3.3 mg kg^−1 8 h^−1). Mice in group 5 received in vivo both Treprostinil (0.15 mg kg^−1 8 h^−1) and vildagliptin (10 mg kg^−1/d), and finally mice in group 6 were subjected to in vivo vildagliptin. The ability of CD45.1+cells to home into the bone marrow was assessed after 16 h by analysing the bone marrow of the recipients by FACS. Data are as means±SEM (n=3). Statistical comparisons were done by ANOVA followed by Tukey's multiple comparison.

[3] = test system: lethally irradiated recipient BALB/c mice; assay: In vivo homing assay (colony formation from recipient bone marrow, Example 4)
[4] = test system: lethally irradiated recipient BALB/c mice; assay: In vivo engraftment assay (survival, Example 5); details: 0.2×10^6 pretreated cells, 10/group
Procedure: Haematopoetic progenitor cells isolated from bone marrow of donor mice (BALB/c) as outlined in the legend to FIG. 4. The cells were treated in vitro with 10 μM Treprostinil and 30 μM forskolin or vehicle for 1 h at 37° C. After washing, 0.2×10^6 lineage-negative haematopoetic progenitor cells were injected via the tail vein into lethally irradiated (9 Gy) recipient BALB/c mice (10/group). If not pretreated in vitro with the combination of Treprostinil and forskolin, this number of haematopoetic progenitor cells is too low to rescue the recipient animals. Accordingly, the group of mice, which received cells that had not been pretreated, died within the first week (black line, CTRL). The limiting number of haematopoetic stem cells sufficed to rescue 50% of the mice, which had received pretreated cells and were then treated with Treprostinil (3 μg/8 h s.c. for 10 days; red curve labeled in vitro pretreated cells+in vivo treatment of recipient mice with Treprostinil). […] In contrast, mice, which received the combination of Treprostinil (3 μg/8 h) and vildagliptin (10 mg/kg/24 h) had the worst outcome of all recipient mice that had received pretreated cells: only 2 out of ten mice survived (grey line labeled in vitro pretreated cells+in vivo treatment of recipient mice with the combination of Treprostinil and vildagliptin). […]

[5] = test system: murine haematopoetic progenitor cells; assay: In vitro migration assay (Transwell, towards SDF-1/CXCL12), murine cells; format: cell-based; details: 100 ng/ml murine SDF-1, 4 h; for SDF-1/CXCL12-induced migration of Treprostinil+forskolin-stimulated cells: 10 μM AMD3100
Procedure: Murine haematopoetic progenitor cells were pretreated in vitro with the combination of 10 μM Treprostinil (Trep) and 30 μM forskolin (Fsk) (Sigma Aldrich, Vienna, Austria) or vehicle for 1 h at 37° C. in growth factor containing stem cell medium [(StemSpan™ (SFEM) (Stemcell technologies, USA) (50 ng/mL murine stem cell factor (SCF), 50 ng/mL fms-like tyrosine kinase-3 ligand (Flt3), 50 ng/mL interleukin 11 (IL11) and 150 ng/mL murine interleukin 3 (mIL3)] purchased from PeproTech (London, United Kingdom)). Thereafter cells were washed and resuspended at 2×10^6 cells/mL in medium.
The cell suspension (0.1 mL containing 2×10^5 cells) was added to the upper chamber of Transwell™ dishes (5 μm pore diameter). The bottom chamber was followed with medium or medium containing 100 ng/ml murine stromal derived factor-1 (SDF-1=CXCL12). Cells were allowed to migrate for 4 h at 37° C. Subsequently, the number of cells recovered from the lower chamber was determined by a cell counter. The number of migrated cells was expressed as percentage of total cells added to the upper chamber.
Hematopoietic stem and progenitor cells were preincubated with Treprostinil (10 μM; T) and forskolin (30 μM; F) for 1 h at 37° C., washed and resuspended at a cell density of 2×10^6 cells/mL. The cell suspension (2×10^5 cells in 0.1 mL) was added to the upper chamber the Transwell™ dish, which contained medium with and without 10 ΞM CXCR4 antagonist AMD3100 (10 μM). The medium in the lower chamber contained 100 ng/ml murine SDF-1. The incubation lasted for 4 h at 37° C.; thereafter cells recovered in the lower chamber were counted as outlined in the legend to FIG. 1. Data shown are means±SEM from three independent experiments carried out in triplicate. Statistically significant differences were assessed by one way ANOVA followed by Dunnett's multiple comparisons (***, p<0.001).

[6] = test system: lethally irradiated recipient BALB/c mice; assay: Bone marrow transplantation (survival of recipient mice, Example 6); format: in vivo
Procedure: These were subsequently divided in two groups. Mice allocated to group 1 (n=10) were further subjected to in vivo treatment with Treprostinil (0.15 mg kg^−1 8 h^−1) whereas mice in group 2 (n=10) received both Treprostinil (0.15 mg kg^−1 8 h^−1) and AMD3100 (3.3 mg kg^−1 8 h^−1) by subcutaneous injection every 8 h for 10 days.
Isogenic recipient mice (C57BL/6 or BALB/c) were subjected to lethal irradiation. […] Lin^− (Sca1^+ and c-Kit^+) HSPCs cells were prepared as outlined above and were pretreated ex vivo in the absence and presence of the combination of 10 μM Treprostinil+30 μM forskolin (FSK) for 1 h at 37° C. Thereafter, the cells (1-5*10^5/mouse) were injected via the tail vein. White blood cell counts were determined by FACS, blood samples were collected every 3 to 5 days starting on day 9 (where blood cell count was ˜1 G/L. In some instances, mice (25-30 g) were also treated with (i) Treprostinil (0.15 mg kg 8 h^−1) and vildagliptin (10 mg kg−^1 12 h^−1) or with the combination of both administered subcutaneously every 8 h for 10 days.
If this was the case, the action of vildagliptin ought to be blunted by simultaneous administration of AMD3100/plerixafor. An experiment was done with seven groups of recipient BALB/c mice (5/group). Several of these groups were internal controls, which were included to verify that earlier findings were recapitulated. […] It is stressed that all conditions were tested in parallel, thus a comparison is legitimate.
Murine HPSCs isolated from donor BALB/c mice were treated in vitro with 10 μM Treprostinil and 30 μM forskolin or vehicle (solid line) for 1 h at 37° C. After washing, 2×10^5 cells were injected into lethally irradiated (10 Gy) recipient BALB/c mice. […] Another group of mice (dotted lines/triangles; n=20) received HSPCs pretreated with 10 μM Treprostinil and 30 μM forskolin, and were also treated in vivo with Treprostinil (0.15 mg kg−1 8 h−1). The next group of mice (dotted lines/squares; n=20) again received in vitro HSPCs pretreated with forskolin+Treprostinil and were further treated in vivo with both Treprostinil (0.15 mg kg^−1 8 h^−1) and vildagliptin (10 mg/kg/24 h). Finally, a group of mice (dashed lines/circles; n=20) received in vitro HSPCs pretreated with forskolin+Treprostinil and were treated in vivo with vildagliptin (10 mg kg−1 per day). In vivo treatment was done by subcutaneous injections, it was initiated directly after transplantation and continued for 10 days.

[7] = Treprostinil+forskolin-pretreated HSPCs, recipients given one drug in vivo (Treprostinil 0.15 mg kg-1 8 h-1 or vildagliptin 10 mg kg-1/d), 16 h
[8] = pretreated HSPCs, recipients given Treprostinil in vivo plus the named drug (AMD3100 3.3 mg kg-1 8 h-1 or vildagliptin 10 mg kg-1/d)
[9] = Treprostinil+forskolin-treated cells, recipients treated in vivo (Treprostinil 3 μg/8 h, vildagliptin 10 mg/kg/24 h)
[10] = untreated cells, recipients treated in vivo (Treprostinil 3 μg/8 h, vildagliptin 10 mg/kg/24 h) from 24 h before transplantation
[11] = 2*10^5 Treprostinil+forskolin-pretreated HSPCs, in vivo s.c. for 10 days (Treprostinil 0.15 mg kg-1 8 h-1 or vildagliptin 10 mg kg-1 per day), n=20
[12] = seven groups, 5/group, all received 2*10^5 Treprostinil+forskolin-pretreated HSPCs, in vivo treatment as named

EP2 receptors, sequence (P43116 whole entry): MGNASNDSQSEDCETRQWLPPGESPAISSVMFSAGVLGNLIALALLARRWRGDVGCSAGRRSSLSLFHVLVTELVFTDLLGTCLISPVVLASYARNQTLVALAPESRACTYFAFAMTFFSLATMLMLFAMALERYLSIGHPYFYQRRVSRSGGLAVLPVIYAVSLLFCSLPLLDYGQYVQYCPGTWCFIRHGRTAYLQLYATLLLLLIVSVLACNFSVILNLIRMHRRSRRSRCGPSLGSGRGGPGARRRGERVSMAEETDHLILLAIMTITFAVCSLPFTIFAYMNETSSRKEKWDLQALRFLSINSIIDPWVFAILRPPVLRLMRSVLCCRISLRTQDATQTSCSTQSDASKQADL

CCCCC(C)(C)[C@H](O)/C=C/[C@H]1[C@H](O)CC(=O)[C@@H]1C/C=C\CCCC(=O)O [dmPGE2, 16,16-dimethyl PGE2]
cAMP response after pertussis toxin pretreatment [1]: increased the response to dmPGE2
Kd (EP2 receptors): ~1 nM

N#C[C@@H]1CCCN1C(=O)CNC12CC3CC(CC(O)(C3)C1)C2 [vildagliptin]
homing of CD45.1+ cells into bone marrow [2, 7]: most pronounced increase in homing
homing of CD45.1+ cells into bone marrow [2, 8]: abrigated the homing effect of Treprostinil
homing of CD45.1+ cells into bone marrow ([2]; untreated HSPCs, recipients given vildagliptin 10 mg kg-1/d in vivo): did not enhance homing
homing into bone marrow (colonies) [3, 9]: promoted homing
homing into bone marrow (colonies) [3, 10]: did not promote homing
mice survived ([4]; in vivo s.c. for 10 days (vildagliptin 10 mg/24 h; combination Treprostinil 3 μg/8 h + vildagliptin 10 mg/kg/24 h)): 10 out of 10
SDF-1/CXCL12-induced migration of Treprostinil+forskolin-preincubated cells ([5]; 30 nM vildagliptin): enhances the SDF-1/CXCL12-induced migration
survival of recipient mice [6, 11]: 100%
survival of recipient mice [6, 12]: fared best

CCCCC[C@H](O)CC[C@@H]1[C@H]2Cc3cccc(OCC(=O)[O-])c3C[C@H]2C[C@H]1O.[Na+] [Treprostinil, (1R,2R,3aS,9aS)-[[2,3,3a,4,9,9a-hexahydro-2-hydroxy-1-[(3S)-3-hydroxyoctyl]-1H-benz[f]inden-5-yl]oxy]acetic acid monosodium salt]
homing of CD45.1+ cells into bone marrow [2, 7]: increased their homing into the bone marrow
homing into bone marrow (colonies) [3, 9]: promoted homing
homing into bone marrow (colonies) [3, 10]: did not promote homing
mice rescued ([4]; in vivo Treprostinil 3 μg/8 h s.c. for 10 days): 50%
survival of recipient mice [6, 11]: 60%
shape of in vivo dose-response-curve for bone marrow engraftment ([6]; noted previously, higher doses less beneficial than standard dose): bell-shaped
cAMP in haematopoetic progenitor cells [1]: stimulates cAMP
cAMP accumulation, efficacy compared ([1]; 10 μM, in the presence of 30 μM forskolin, 30 min): more efficacious than 10 μM dmPGE2
cAMP accumulation, efficacy compared ([1]; absence or presence of 30 μM forskolin): significantly more efficacious than dmPGE2
span of concentration-response curve (cAMP) ([1]; human haematopoetic stem and progenitor cells): more than two orders of magnitude between 10 and 90% of the response
cAMP response after pertussis toxin pretreatment [1]: no significant difference

c1cc(CN2CCCNCCNCCCNCC2)ccc1CN1CCCNCCNCCCNCC1 [AMD3100]
homing of CD45.1+ cells into bone marrow [2, 8]: abolished
SDF-1/CXCL12-induced migration of Treprostinil+forskolin-stimulated cells [5]: inhibits the SDF-1/CXCL12-induced migration
SDF-1/CXCL12-induced migration of Treprostinil+forskolin-stimulated cells ([5]; listed as plerixafor/AMD3100): blocked
survival of recipient mice ([6]; pretreated HSPCs, AMD3100 3.3 mg kg-1 8 h-1 concomitant with Treprostinil 0.15 mg kg-1 8 h-1 s.c. 10 days, n=10): all recipient mice eventually succumbed to bone marrow failure
survival of recipient mice [6, 12]: Enhances Survival
